Results reported in patent US10710986B2, “PD-1/PD-L1 inhibitors” (Gilead Sciences, Inc., priority 2018, dated 2020).

Each compound was assayed against PD-1/PD-L1 (Homo sapiens (Human), UniProt Q9NZQ7) (assay: PD-1/PD-L1 biochemical protein-protein interaction assay (ALPHA)). Details: 0.3 nM His tagged PD-L1, 2.5 nM biotinylated Fc-PD-1, 60 minutes at 25° C., read-out: IC50 PD-L1-PD1.
Sequence of PD-1/PD-L1 (Q9NZQ7 19-238): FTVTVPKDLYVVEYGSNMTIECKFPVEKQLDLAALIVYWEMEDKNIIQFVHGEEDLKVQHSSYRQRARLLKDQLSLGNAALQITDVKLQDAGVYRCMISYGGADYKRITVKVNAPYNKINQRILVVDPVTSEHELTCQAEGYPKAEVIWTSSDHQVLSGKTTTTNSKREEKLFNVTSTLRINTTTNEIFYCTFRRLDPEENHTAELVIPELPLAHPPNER
Procedure: Binding of the protein pairs is measured using a bead based Amplified Luminescent Proximity Homogeneous Assay (ALPHA) platform. Binding of each protein pair results in proximity of the donor and acceptor beads which leads to an increase in ALPHA signal. […] Assays are performed in 25 mM Hepes (pH 7.4), 150 mM NaCl, 3.4 mM EDTA, 0.005% Tween 20, and 0.01% BSA. […] After an assay reaction time of 60 minutes at 25° C., binding was measured with addition of 20 μg/mL ALPHA assay acceptor beads (anti-His coated) and 20 µg/mL ALPHA assay donor beads (streptavidin coated). IC50 values were calculated from the fit of the dose-response curves to a four-parameter equation.
`COc1nc(-c2cccc(-c3cccc(-c4cnc(CN5CC6(CCC(=O)N6)C5)c(OC)n4)c3Cl)c2F)cnc1CN1CC2(CCC(=O)N2)C1` [compound 1] was tested, and the IC50 was 0.08 nM.
Work on `COc1nc(-c2cccc(-c3cccc(-c4cnc(CN5CC(O)C5)c(OC)n4)c3Cl)c2F)cnc1CN1CC(O)C1` [compound 2] yielded an IC50 of 0.135 nM.
Compound `COc1nc(-c2cccc(-c3cccc(-c4cnc(CN5CC(OC)C5)c(OC)n4)c3Cl)c2F)cnc1CN1CC(OC)C1` [compound 3] has an IC50 of 0.318 nM.
Compound `COc1nc(-c2cccc(-c3cccc(-c4cnc(CN5CC6(C5)CN(C(C)=O)C6)c(OC)n4)c3Cl)c2F)cnc1CN1CC2(C1)CN(C(C)=O)C2` [compound 4] has an IC50 of 0.086 nM.
Work on `COc1nc(-c2cccc(-c3cccc(-c4cnc(CNCCO)c(OC)n4)c3Cl)c2F)cnc1CNCCO` [compound 5] yielded an IC50 of 0.213 nM.
Compound `COc1nc(-c2cccc(-c3cccc(-c4cnc(CNC[C@@H]5CCC(=O)N5)c(OC)n4)c3Cl)c2F)cnc1CNC[C@@H]1CCC(=O)N1` [compound 6] has an IC50 of 0.099 nM.
`COc1nc(-c2cccc(-c3cccc(-c4cnc(CNC56CC(C#N)(C5)C6)c(OC)n4)c3Cl)c2Cl)cnc1CNC[C@@H]1CCC(=O)N1` [compound 7] was tested, and the IC50 was 0.43 nM.
`COc1nc(-c2cccc(-c3cccc(-c4cnc(CNC56CC(OC)(C5)C6)c(OC)n4)c3Cl)c2Cl)cnc1CNC[C@@H]1CCC(=O)N1` [compound 8] gave an IC50 of 0.59 nM.
`COc1nc(-c2cccc(-c3cccc(-c4cnc(CN5CC(C)(C#N)C5)c(OC)n4)c3Cl)c2Cl)cnc1CNC[C@@H]1CCC(=O)N1` [compound 9] showed an IC50 of 0.49 nM.
Compound `COc1nc(-c2cccc(-c3cccc(-c4cnc(CN5CC(C#N)C5)c(OC)n4)c3Cl)c2Cl)cnc1CNC[C@@H]1CCC(=O)N1` [compound 10] has an IC50 of 0.27 nM.
Work on `COc1nc(-c2cccc(-c3cccc(-c4cnc(CN[C@@H]5COC[C@H]5O)c(OC)n4)c3Cl)c2Cl)cnc1CNC[C@@H]1CCC(=O)N1` [compound 11] yielded an IC50 of 0.172 nM.
`COc1nc(-c2cccc(-c3cccc(-c4cnc(CNC56CC(C5)C6)c(OC)n4)c3Cl)c2Cl)cnc1CNC[C@@H]1CCC(=O)N1` [compound 12] gave an IC50 of 1.49 nM.
`COc1nc(-c2cccc(-c3cccc(-c4cnc(CN5CC(C(N)=O)C5)c(OC)n4)c3Cl)c2Cl)cnc1CNC[C@@H]1CCC(=O)N1` [compound 13] gave an IC50 of 0.482 nM.
Compound `COc1nc(-c2cccc(-c3cccc(-c4cnc(CN5CC(N6CCCC6=O)C5)c(OC)n4)c3Cl)c2Cl)cnc1CNC[C@@H]1CCC(=O)N1` [compound 14] has an IC50 of 0.224 nM.
In the case of `COc1nc(-c2cccc(-c3cccc(-c4cnc(CNC56CC(C(F)(F)F)(C5)C6)c(OC)n4)c3Cl)c2Cl)cnc1CNC[C@@H]1CCC(=O)N1` [compound 15], the IC50 is reported as 7.51 nM.
Compound `COc1nc(-c2cccc(-c3cccc(-c4cnc(CN5CC(C)(O)C5)c(OC)n4)c3Cl)c2Cl)cnc1CNC[C@@H]1CCC(=O)N1` [compound 16] has an IC50 of 0.173 nM.
`COc1nc(-c2cccc(-c3cccc(-c4cnc(CNC[C@H]5CCCN5C(C)=O)c(OC)n4)c3Cl)c2Cl)cnc1CNC[C@@H]1CCC(=O)N1` [compound 17] gave an IC50 of 0.163 nM.
Work on `COc1nc(-c2cccc(-c3cccc(-c4cnc(CNC[C@@H]5CCCN5C(C)=O)c(OC)n4)c3Cl)c2Cl)cnc1CNC[C@@H]1CCC(=O)N1` [compound 18] yielded an IC50 of 0.266 nM.
In the case of `CNC(=O)[C@@H]1CCCN1Cc1ncc(-c2cccc(-c3cccc(-c4cnc(CNC[C@@H]5CCC(=O)N5)c(OC)n4)c3Cl)c2Cl)nc1OC` [compound 19], the IC50 is reported as 0.199 nM.
Work on `CNC(=O)[C@H]1CCCN1Cc1ncc(-c2cccc(-c3cccc(-c4cnc(CNC[C@@H]5CCC(=O)N5)c(OC)n4)c3Cl)c2Cl)nc1OC` [compound 20] yielded an IC50 of 0.546 nM.
Work on `COC[C@H]1CCCN1Cc1ncc(-c2cccc(-c3cccc(-c4cnc(CNC[C@@H]5CCC(=O)N5)c(OC)n4)c3Cl)c2Cl)nc1OC` [compound 21] yielded an IC50 of 0.525 nM.
Work on `COC[C@@H]1CCCN1Cc1ncc(-c2cccc(-c3cccc(-c4cnc(CNC[C@@H]5CCC(=O)N5)c(OC)n4)c3Cl)c2Cl)nc1OC` [compound 22] yielded an IC50 of 0.506 nM.
Compound `COc1nc(-c2cccc(-c3cccc(-c4cnc(CN5CCC[C@@H]5CO)c(OC)n4)c3Cl)c2Cl)cnc1CNC[C@@H]1CCC(=O)N1` [compound 23] has an IC50 of 0.221 nM.
For `COc1nc(-c2cccc(-c3cccc(-c4cnc(CN5CCC[C@H]5CO)c(OC)n4)c3Cl)c2Cl)cnc1CNC[C@@H]1CCC(=O)N1` [compound 24], the IC50 was 0.179 nM.
Work on `COc1nc(-c2cccc(-c3cccc(-c4cnc(CNC[C@@H]5CCC(=O)N5)c(OC)n4)c3Cl)c2Cl)cnc1CNCCOC(N)=O` [compound 25] yielded an IC50 of 0.08 nM.
`COc1nc(-c2cccc(-c3cccc(-c4cnc(CNC[C@@H]5CCC(=O)N5)c(OC)n4)c3Cl)c2Cl)cnc1CNCc1cnn(CCO)c1` [compound 26] was tested, and the IC50 was 0.06 nM.
In the case of `COc1nc(-c2cccc(-c3cccc(-c4cnc(CNC[C@@H]5CCC(=O)N5)c(OC)n4)c3Cl)c2Cl)cnc1CNCc1ccn(C)n1` [compound 27], the IC50 is reported as 0.09 nM.
Work on `COc1nc(-c2cccc(-c3cccc(-c4cnc(CNC[C@@H]5CCC(=O)N5)c(OC)n4)c3Cl)c2Cl)cnc1CNCc1nc[nH]n1` [compound 28] yielded an IC50 of 0.436 nM.
In the case of `COc1nc(-c2cccc(-c3cccc(-c4cnc(CNCc5nc(C)n[nH]5)c(OC)n4)c3Cl)c2Cl)cnc1CNCc1nc(C)n[nH]1` [compound 29], the IC50 is reported as 1.09 nM.
Compound `COc1nc(-c2cccc(-c3cccc(-c4cnc(CNCc5ccn(C)n5)c(OC)n4)c3Cl)c2Cl)cnc1CNCc1ccn(C)n1` [compound 30] has an IC50 of 0.475 nM.
In the case of `CCn1cc(CNCc2ncc(-c3cccc(-c4cccc(-c5cnc(CNCc6cnn(CC)c6)c(OC)n5)c4Cl)c3Cl)nc2OC)cn1` [compound 31], the IC50 is reported as 0.334 nM.
With `CCn1cc(CNCc2ncc(-c3cccc(-c4cccc(-c5cnc(CNC[C@@H]6CCC(=O)N6)c(OC)n5)c4Cl)c3Cl)nc2OC)nn1` [compound 32] the IC50 was 0.187 nM.
For `COc1nc(-c2cccc(-c3cccc(-c4cnc(CNC[C@@H]5CCC(=O)N5)c(OC)n4)c3Cl)c2Cl)cnc1CNCCc1cnn[nH]1` [compound 33], the IC50 was 0.138 nM.
In the case of `COc1nc(-c2cccc(-c3cccc(-c4cnc(CNC[C@@H]5CCC(=O)N5)c(OC)n4)c3Cl)c2Cl)cnc1CNCc1ccnn1C` [compound 34], the IC50 is reported as 0.231 nM.
For `COc1nc(-c2cccc(-c3cccc(-c4cnc(CNC[C@@H]5CCC(=O)N5)c(OC)n4)c3Cl)c2Cl)cnc1CNCc1c[nH]nn1` [compound 35], the IC50 was 0.191 nM.
Compound `COc1nc(-c2cccc(-c3cccc(-c4cnc(CN5C[C@@H](N)CCC5=O)c(OC)n4)c3Cl)c2Cl)cnc1CNC[C@@H]1CCC(=O)N1` [compound 36] has an IC50 of 1.29 nM.
`COc1nc(-c2cccc(-c3cccc(-c4cnc(CNC[C@@H]5CCC(=O)N5)c(OC)n4)c3Cl)c2Cl)cnc1CNCCNc1ccc([N+](=O)[O-])cc1` [compound 37] was tested, and the IC50 was 1.7 nM.
Compound `COc1nc(-c2cccc(-c3cccc(-c4cnc(CNC(CO)c5nn[nH]n5)c(OC)n4)c3Cl)c2Cl)cnc1CNC[C@@H]1CCC(=O)N1` (stereo partly shown) [compound 38] has an IC50 of 0.66 nM.
For `COc1nc(-c2cccc(-c3cccc(-c4cnc(CN[C@H]5CCNC5=O)c(OC)n4)c3Cl)c2Cl)cnc1CNC[C@@H]1CCC(=O)N1` [compound 39], the IC50 was 0.39 nM.
With `COc1nc(-c2cccc(-c3cccc(-c4cnc(CN5C[C@@H](F)C[C@H]5CO)c(OC)n4)c3Cl)c2Cl)cnc1CNC[C@@H]1CCC(=O)N1` [compound 40] the IC50 was 0.238 nM.
For `COc1nc(-c2cccc(-c3cccc(-c4cnc(CN5CCNC(=O)C5)c(OC)n4)c3Cl)c2Cl)cnc1CNC[C@@H]1CCC(=O)N1` [compound 41], the IC50 was 0.083 nM.
In the case of `COc1nc(-c2cccc(-c3cccc(-c4cnc(CNC[C@@H]5CCC(=O)N5)c(OC)n4)c3Cl)c2Cl)cnc1CNCCS(=O)(=O)O` [compound 42], the IC50 is reported as 3.42 nM.
`COc1nc(-c2cccc(-c3cccc(-c4cnc(CNC[C@@H]5CCC(=O)N5)c(OC)n4)c3Cl)c2Cl)cnc1CNCCS(N)(=O)=O` [compound 43] gave an IC50 of 0.083 nM.
Compound `COc1nc(-c2cccc(-c3cccc(-c4cnc(CNC[C@@H]5CCC(=O)N5)c(OC)n4)c3Cl)c2Cl)cnc1CNCCNC(N)=O` [compound 44] has an IC50 of 0.113 nM.
`COc1nc(-c2cccc(-c3cccc(-c4cnc(CNC[C@@H]5CCC(=O)N5)c(OC)n4)c3Cl)c2Cl)cnc1CNCCC(N)=O` [compound 45] gave an IC50 of 0.064 nM.
Work on `COc1nc(-c2cccc(-c3cccc(-c4cnc(CN(C)C)c(OC)n4)c3Cl)c2Cl)cnc1CNC[C@@H]1CCC(=O)N1` [compound 46] yielded an IC50 of 0.081 nM.
In the case of `COc1nc(-c2cccc(-c3cccc(-c4cnc(CNC[C@@H]5CCC(=O)N5)c(OC)n4)c3Cl)c2Cl)cnc1CNCC(O)C(F)(F)F` (stereo partly shown) [compound 47], the IC50 is reported as 0.16 nM.
Compound `CCN(CCc1cn[nH]c1)Cc1ncc(-c2cccc(-c3cccc(-c4cnc(CNC[C@@H]5CCC(=O)N5)c(OC)n4)c3Cl)c2Cl)nc1OC` [compound 48] has an IC50 of 0.822 nM.
`COc1nc(-c2cccc(-c3cccc(-c4cnc(CNC[C@@H]5CCC(=O)N5)c(OC)n4)c3Cl)c2Cl)cnc1CNCCc1cn[nH]c1` [compound 49] was tested, and the IC50 was 0.356 nM.
In the case of `COc1nc(-c2cccc(-c3cccc(-c4cnc(CN5CC6(CNC(=O)O6)C5)c(OC)n4)c3Cl)c2Cl)cnc1CNC[C@@H]1CCC(=O)N1` [compound 50], the IC50 is reported as 0.259 nM.
`COc1nc(-c2cccc(-c3cccc(-c4cnc(CN(C)CC(N)=O)c(OC)n4)c3Cl)c2Cl)cnc1CNC[C@@H]1CCC(=O)N1` [compound 51] gave an IC50 of 0.301 nM.
In the case of `COc1nc(-c2cccc(-c3cccc(-c4cnc(CN5CC6CC6(CO)C5)c(OC)n4)c3Cl)c2Cl)cnc1CNC[C@@H]1CCC(=O)N1` (stereo partly shown) [compound 52], the IC50 is reported as 0.17 nM.
With `COc1nc(-c2cccc(-c3cccc(-c4cnc(CN5CC6CC5(CO)C6)c(OC)n4)c3Cl)c2Cl)cnc1CNC[C@@H]1CCC(=O)N1` [compound 53] the IC50 was 0.1 nM.
`COc1nc(-c2cccc(-c3cccc(-c4cnc(CNC[C@H]5CCC[C@@H]5O)c(OC)n4)c3Cl)c2Cl)cnc1CNC[C@@H]1CCC(=O)N1` [compound 54] gave an IC50 of 0.18 nM.
`COc1nc(-c2cccc(-c3cccc(-c4cnc(CNC[C@@H]5CCC(=O)N5)c(OC)n4)c3Cl)c2Cl)cnc1CNCC1CCCCO1` (stereo partly shown) [compound 55] gave an IC50 of 0.26 nM.
